Data as given in PubChem BioAssay AID1645866 (Buhrlage Lab, Dana-Farber Cancer Institute and Novartis …, 2021).
The source made the active and inactive calls.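 The calls were made as follows: active = in confirmatory dose-response testing, peak deubiquitinase inhibition of 30% or more; inactive = the rest.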

target: Ubiquitin carboxyl-terminal hydrolase 28 (Homo sapiens) (UniProt Q96RU2); assay: Concentration-response biochemical assay confirming initial hits as inhibitors of ubiquitin-specific protease 28 (AID 1645866); conditions: purified USP28, ubiquitin-rhodamine fluorescence, 30 min
Sequence (Q96RU2 whole entry, looked up): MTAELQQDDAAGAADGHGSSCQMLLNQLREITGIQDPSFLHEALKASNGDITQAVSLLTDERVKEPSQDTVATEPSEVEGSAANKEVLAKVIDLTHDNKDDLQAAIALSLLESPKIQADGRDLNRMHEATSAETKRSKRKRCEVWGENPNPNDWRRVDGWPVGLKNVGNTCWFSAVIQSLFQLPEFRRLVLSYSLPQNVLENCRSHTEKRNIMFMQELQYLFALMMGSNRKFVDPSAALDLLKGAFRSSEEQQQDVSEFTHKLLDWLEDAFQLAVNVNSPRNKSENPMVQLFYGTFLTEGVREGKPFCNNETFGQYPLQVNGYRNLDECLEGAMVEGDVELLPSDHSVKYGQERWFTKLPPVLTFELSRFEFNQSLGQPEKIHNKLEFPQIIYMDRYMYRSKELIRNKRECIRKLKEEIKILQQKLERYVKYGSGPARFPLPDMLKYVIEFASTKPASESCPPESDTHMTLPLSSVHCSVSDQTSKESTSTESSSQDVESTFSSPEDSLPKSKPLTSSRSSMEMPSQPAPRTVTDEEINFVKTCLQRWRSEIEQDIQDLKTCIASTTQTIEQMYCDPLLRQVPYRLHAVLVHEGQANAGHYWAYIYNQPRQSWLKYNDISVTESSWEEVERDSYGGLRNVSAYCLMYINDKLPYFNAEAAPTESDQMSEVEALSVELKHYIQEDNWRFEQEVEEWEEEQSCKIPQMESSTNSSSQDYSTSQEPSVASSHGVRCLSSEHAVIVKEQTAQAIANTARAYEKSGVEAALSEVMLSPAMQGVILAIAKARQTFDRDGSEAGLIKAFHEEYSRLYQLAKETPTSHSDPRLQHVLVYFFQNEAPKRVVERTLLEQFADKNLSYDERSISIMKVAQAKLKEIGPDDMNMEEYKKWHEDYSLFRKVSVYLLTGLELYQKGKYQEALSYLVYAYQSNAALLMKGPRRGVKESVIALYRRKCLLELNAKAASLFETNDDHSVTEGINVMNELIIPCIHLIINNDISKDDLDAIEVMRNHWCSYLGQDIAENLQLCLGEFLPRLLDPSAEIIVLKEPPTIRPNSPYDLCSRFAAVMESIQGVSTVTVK

| IC50 | Compound |
| --- | --- |
| 23 µM | Cc1c(CC(=O)N2CCN(c3ncccn3)CC2)c(=O)oc2cc(O)ccc12 |
| 33.6 µM | O=C(Nc1ccc2nccnc2c1)c1cccc(C(F)(F)F)c1 |
| 4.01 µM | CCOc1ccc(NC(=O)Cn2c(=O)n(CCC(=O)NCc3ccccc3OC)c(=O)c3ccccc32)cc1 |
| 2.11 µM | CC(NC(=O)c1ccccc1)c1nc2ccccc2n1CC(=O)Nc1ccc2c(c1)OCO2 (centres undefined) |
| 28.2 µM | CN(c1ccccc1)c1nc(=O)n(CC(=O)Nc2ccc3c(c2)OCCO3)c2ccccc12 |
| 28.9 µM | O=C(CSc1nnc(CNC(=O)c2ccccc2F)o1)Nc1ccc(OC(F)(F)F)cc1 |
| 1.27 µM | COc1ccc(NC(=O)c2cc(-c3cccnc3)n[nH]2)cc1Cl |
| 1.57 µM | COc1ccc(OCCn2c(C3CC(=O)N(c4cccc(C)c4)C3)nc3ccccc32)cc1 (centres undefined) |
| > 50 µM (inactive) | Cc1ccc2c(c1C)NC(=O)[C@]21[C@@H]2C(=O)N(c3cc(Cl)ccc3Cl)C(=O)[C@@H]2[C@@H]2CCCN21 |
| 16 µM | COc1ccc(-c2cc(N3CCC(NC(=O)c4ccccc4)C3)n[nH]2)cc1 (centres undefined) |
| > 50 µM (inactive) | Cn1cccc1C(=O)N1CCCC2(C1)Nc1cccnc1NC2=NC1CCCC1 (centres undefined) |
| > 50 µM (inactive) | Cc1cccc(NC(=O)Cn2c(-c3cnccn3)nc(C)c(C)c2=O)c1C |
| > 50 µM (inactive) | COc1ccccc1C(=O)NCC(c1ccc2c(c1)CCCN2C)N1CCCC1 (centres undefined) |
| 14.5 µM | CCC(=O)Nc1cccnc1-c1ccc(C(=O)Nc2cccc(OC)c2)cc1 |
| 11.6 µM | CNC(=O)c1cc2nc(N(C)C)n(-c3ccc(F)cc3)c2s1 |
| > 50 µM (inactive) | COc1cccc(N2CCN(C(=O)CCNS(=O)(=O)c3ccc4c(c3)CCC(=O)N4)CC2)c1 |
| > 50 µM (inactive) | COC(=O)C1C(c2ccc(OC)cc2)C2(C(=O)c3ccccc3C2=O)C2C=Cc3ccccc3N12 (centres undefined) |
| 22.4 µM | O=C(O)c1ccccc1C(=O)Nc1ccc(SC(C(=O)Nc2cccc(Cl)c2)c2ccccc2)cc1 (centres undefined) |
| 3.62 µM | N#Cc1ccc(COC(=O)c2ccc3ccccc3n2)cc1 |
| 2.75 µM | Cc1ccc(C(=O)Nc2ccc3c(c2)C(=O)N(C)c2ccccc2O3)cc1C |
| > 50 µM (inactive) | COc1cnc(CSc2ncccn2)cc1OCC(=O)Nc1cc(C)ccc1C |
| 14 µM | CCOc1ccc(NC(=O)c2cc(-c3ccccc3)c(N3CCOCC3)s2)cc1 |
| > 50 µM (inactive) | CCOC(=O)C1C(c2ccc(Br)cc2)C2(C(=O)c3ccccc3C2=O)C2C=Cc3ccccc3N12 (centres undefined) |

| IC50 | Compound |
| --- | --- |
| 24.9 µM | C=C(NC(=O)C(=C)NC(=O)c1csc(-c2ccc3c(n2)-c2csc(n2)-c2csc(n2)C(C(C)C2CO2)NC(=O)C(Cc2ccc(O)cc2)NC(=O)c2csc(n2)C(C(O)c2ccccc2)NC(=O)c2nc(sc2C)C(CC(N)=O)NC(=O)c2csc-3n2)n1)C(=O)O (centres undefined) |
| 3.13 µM | COc1cccc(NC(=O)Nc2ccc3nc4n(c(=O)c3c2)CCCC4)c1 |
| > 50 µM (inactive) | COc1ccc(NC(=O)COc2cc(CSc3ccccc3)ncc2OC)cc1 |
| > 50 µM (inactive) | COc1ccc(-c2cc(C(F)F)n3ncc(C(=O)Nc4ccc5c(c4)OCCO5)c3n2)cc1 |
| 18.6 µM | COc1ccc(-n2c(SCC(=O)c3ccc(F)cc3)nnc2-c2cccnc2)cc1 |
| > 50 µM (inactive) | Cc1c(C)n(-c2ccccc2)c2ncn(CC(=O)N(C)Cc3ccccc3)c(=O)c12 |
| > 50 µM (inactive) | N#Cc1cccc(NC(=O)Cn2cccc(-c3nc(-c4ccccc4)no3)c2=O)c1 |
| > 50 µM (inactive) | NC(=O)CCC(=O)N[C@H]1C[C@H]2CN(Cc3ccccc3)c3ccccc3CN2C1 |
| > 50 µM (inactive) | O=S(=O)(c1ccccc1Cl)N1CCN(c2ccc3nnc(-c4ccco4)n3n2)CC1 |
| > 50 µM (inactive) | Cc1nc2ccccn2c1C1(O)C(=O)Nc2c(Cl)cc(Cl)cc21 (centres undefined) |
| 0.592 µM | CCCc1nc2sc3c(NCCN4CCOCC4)ncnc3c2c2c1CCC2 |
| 23 µM | Cc1nn(-c2cc(N3CCOCC3)ncn2)c(C)c1CCC(=O)Nc1ccc(C(C)C)cc1 |
| 13.8 µM | Cc1cc(C)c2cc(C(=O)NC3CCN(Cc4ccccc4)CC3)[nH]c2c1 |
| 37.6 µM | Cc1nc(-c2noc(-c3ccncc3)n2)cn1CC(=O)N1CCN(c2ccc(F)cc2)CC1 |
| 4.79 µM | O=C(Nc1cccn(Cc2c(Cl)cccc2Cl)c1=O)c1ccccc1[N+](=O)[O-] |
| 34.5 µM | O=C(CSc1nc2cc(S(=O)(=O)Nc3ccccc3Cl)ccc2o1)Nc1ccc(N2CCOCC2)cc1 |
| 15.6 µM | Cc1cc(-c2nnc(SCC(=O)Nc3ccc(Br)c(C)c3)n2N)n[nH]1 |
| 28.7 µM | O=C(Cn1cnc2ccccc21)Nc1ccc2c(c1)CCC2 |
| 15.2 µM | CCn1ccc2c(cc(C(=O)Nc3ccccc3F)n2C)c1=O |
| 13 µM | Cc1ccc(Cn2c(=O)n(CCC(=O)NCCc3ccccc3)c(=O)c3ccccc32)cc1 |
| 40.8 µM | O=S(=O)(Nc1ccc2oc(-c3ccncc3)nc2c1)c1ccccc1 |
| 2.74 µM | CC(C)CC[C@H]1O[C@@H](CC(=O)O)Cc2cc3c(c(O)c21)C(=O)c1sc(=O)n(C)c1C3=O |
| > 50 µM (inactive) | O=C(c1ccc2ncccc2c1)N1CCC2(C1)Nc1cccnc1NC2=NC1CCCC1 (centres undefined) |

| IC50 | Compound |
| --- | --- |
| 5.14 µM | CC(C)c1ccc(NC(=O)c2cc3ncc(Br)cn3n2)cc1 |
| 43.9 µM | Cc1cc(=O)n(C)c2c(O)c3c(cc12)c(C)cc(=O)n3C |
| 3.54 µM | Cc1cc(C)c(O)c(-c2cc(C(=O)Nc3ccccc3Cl)[nH]n2)c1 |
| 15 µM | O=C(CC1C(=O)Nc2nc(-c3ccccc3)nn21)Nc1cccc2ccccc12 (centres undefined) |
| > 50 µM (inactive) | CC1CCCN1C(=O)c1ccn(-c2ccc3ccc(-c4cccnc4)cn23)n1 (centres undefined) |
| 8.29 µM | Cn1cc(CCNC(=O)c2cc3ccccc3[nH]2)c2cccnc21 |
| 4.6 µM | O=C1COc2ccccc2N1Cc1noc(-c2ccccc2)n1 |
| 6.94 µM | N#Cc1ccccc1COC(=O)c1ccc2ccccc2n1 |
| 21.1 µM | COc1ccc(CCNC(=O)CCCCn2c(=O)c3ccccc3n(Cc3cccc(Cl)c3)c2=O)cc1OC |
| 19.7 µM | Cc1cc(N2CCOCC2)nc2ccc(NC(=O)CCC(=O)Nc3ccc(F)cc3)cc12 |
| > 50 µM (inactive) | CCn1cc(NC(=O)CN2CCC3(CC=CCOC3)CC2)c(C)n1 |
| 4.77 µM | C/C1=C\CCC(C)C(O)CC(O)C(C)C(O)CCC(C)C(O)CC2(O)OC(CC(OC(=O)CC(=O)O)CC(O)CC(O)CC(O)C(C)C(O)/C=C/C(C)C(C(C)CCCCCCCCN=C(N)N)OC1=O)CC(O)C2O (centres undefined) |
| > 50 µM (inactive) | CC(=O)NCc1nc(-c2ccc3c(c2)nc(C)c(=O)n3C2CCCC2)no1 |
| < 0.05 µM | CCCc1nc2sc3c(NCc4ccco4)ncnc3c2c2c1CCC2 |
| 20.7 µM | COc1cc2c(c(OCC(=O)Nc3ccc4c(c3)OCCO4)c1)C(=O)O[C@@H](C)CCCC(=O)CCCCC2 |
| 40.8 µM | O=C1N(Cc2ccc(F)cc2)CCN1c1ccc2c(c1)CCC2 |
| 17.2 µM | Cc1cc(C)c2sc(N(CCCn3ccnc3)C(=O)Cc3ccccc3)nc2c1 |
| > 50 µM (inactive) | CCCNC(=O)c1ccn(-c2ccc3ccc(-c4cnn(C)c4)cn23)n1 |
| 24.8 µM | CC(C)c1cc(Nc2cccc(F)c2)n2nc(-c3cccnc3)nc2n1 |
| 2.54 µM | O=C(COc1ccc2c(-c3ccccc3)cc(=O)oc2c1)Nc1cccnc1 |
| 7.21 µM | O=c1c2c(ccn1Cc1cc(F)ccc1F)ccn2Cc1cccnc1 |
| 49.1 µM | O=C(Nc1ccccc1Cl)N(Cc1cc2cc3c(cc2[nH]c1=O)OCCO3)C1CCCCC1 |
| > 50 µM (inactive) | CN[C@H]1CC2(CCN(C(=O)CCCn3cccn3)CC2)OC[C@]1(C)O |
